According to ChEMBL document CHEMBL5321282, “Design, Synthesis, and Biological Evaluation of Esculetin-Furoxan-DEAC Ternary Hybrids for Anti-Triple Negative Breast Cancer” (J Med Chem, 2023):
The source made the active and inactive calls. The calls are words filed in the database; no cut-off is given here.

Legend:
[1] = Toxicity in BALB/C mouse xenografted with human MDA-MB-231 cells assessed as kidney damage at 2.5 to 5 mg/kg, ip administered every 2 days measured after 3 weeks by H and E staining based analysis; type: organism-based; settings: in vivo, 504 h, dose 2.5-5 mg/kg
[2] = Cytotoxicity against human MCF-10A cells assessed as inhibition in cell growth measured after 48 hrs by MTT assay; type: toxicity, cell-based
MDA-MB-231 [3] = assay: Induction of mitochondrial membrane potential depolarization in human MDA-MB-231 cells assessed as increase in green fluorescence at 5 to 20 nM incubated for 24 hrs by JC-1 staining based inverted fluorescent microscopic analysis; type: functional, cell-based; settings: dose 5-20 nM
A549 = assay: Antiproliferative activity against human A549 cells assessed as inhibition of cell growth measured after 48 hrs by MTT assay; type: functional, cell-based; settings: A549, 48 h
MDA-MB-231 [4] = assay: Induction of cell cycle arrest in human MDA-MB-231 cells assessed as accumulation of cells at G2/M phase at 5 to 20 nM measured after 24 hrs by PI staining by flow cytometric analysis (Rvb =11.70%); type: functional; settings: dose 5-20 nM
MDA-MB-231 [5] = assay: Induction of apoptosis in human MDA-MB-231 cells assessed as late apoptotic cells at 10 nM incubated for 24 hrs by Annexin V-FITC/PI staining based flow cytometric analysis (reference value: 4.90%); type: functional
MDA-MB-231 [6] = assay: Antiproliferative activity against human MDA-MB-231 cells assessed as inhibition of cell growth measured after 48 hrs by MTT assay; type: functional, cell-based; settings: MDA-MB-231, 48 h
MDA-MB-231 [7] = assay: Induction of apoptosis in human MDA-MB-231 cells assessed as viable cells at 10 nM incubated for 24 hrs by Annexin V-FITC/PI staining based flow cytometric analysis (reference value: 90.1%); type: functional; settings: read-out: Activity
MDA-MB-231 [8] = assay: Induction of apoptosis in human MDA-MB-231 cells assessed as increase in cytoplasmic SMAC level at 5 to 20 nM incubated for 8 hrs by Western blotting analysis; type: functional, cell-based; settings: dose 5-20 nM
[9] = Selectivity index, ratio of IC50 for cytotoxicity against human L02 cells to IC50 for antiproliferative activity against human MDA-MB-231 cells; type: toxicity, cell-based; settings: L02 cells versus MDA-MB-231 cells, read-out: Ratio IC50
MDA-MB-231 [10] = assay: Induction of apoptosis in human MDA-MB-231 cells assessed as late apoptotic cells at 20 nM incubated for 24 hrs by Annexin V-FITC/PI staining based flow cytometric analysis (reference value: 4.90%); type: functional
MDA-MB-231 [11] = assay: Induction of apoptosis in human MDA-MB-231 cells assessed as necrotic cells at 20 nM incubated for 24 hrs by Annexin V-FITC/PI staining based flow cytometric analysis (reference value: 0.11%); type: functional
MDA-MB-231 [12] = assay: Induction of apoptosis in human MDA-MB-231 cells assessed as increase in CypD level incubated for 8 hrs by Western blotting analysis; type: functional, cell-based; settings: dose 5-20 nM
MDA-MB-231 [13] = assay: Induction of apoptosis in human MDA-MB-231 cells assessed as decrease in mitochondrial SMAC level at 5 to 20 nM incubated for 8 hrs by Western blotting analysis; type: functional, cell-based; settings: dose 5-20 nM
MDA-MB-231 [14] = assay: Induction of apoptosis in human MDA-MB-231 cells assessed as viable cells at 20 nM incubated for 24 hrs by Annexin V-FITC/PI staining based flow cytometric analysis (reference value: 90.1%); type: functional; settings: read-out: Activity
MDA-MB-231 [15] = assay: Antitumor activity against human MDA-MB-231 cells xenografted in BALB/C mouse assessed as inhibition of tumor volume at 5 mg/kg, ip administered every 2 days measured after 3 weeks; type: functional; set-up: scale not given: the % may be the effect or the level left
[16] = Toxicity in BALB/C mouse xenografted with human MDA-MB-231 cells assessed as heart damage at 2.5 to 5 mg/kg, ip administered every 2 days measured after 3 weeks by H and E staining based analysis; type: organism-based; settings: in vivo, 504 h, dose 2.5-5 mg/kg
MDA-MB-231 [17] = assay: Induction of apoptosis in human MDA-MB-231 cells assessed as early apoptotic cells at 5 nM incubated for 24 hrs by Annexin V-FITC/PI staining based flow cytometric analysis (reference value: 4.90%); type: functional
MDA-MB-231 [18] = assay: Induction of apoptosis in human MDA-MB-231 cells assessed as decrease in mitochondrial CytC level at 5 to 20 nM incubated for 8 hrs by Western blotting analysis; type: functional, cell-based; settings: dose 5-20 nM
[19] = Cytotoxicity against human L02 cells assessed as inhibition in cell growth measured after 48 hrs by MTT assay; type: toxicity, cell-based
MDA-MB-231 [20] = assay: Induction of mitochondrial membrane potential depolarization in human MDA-MB-231 cells assessed as decrease in red fluorescence at 5 to 20 nM incubated for 24 hrs by JC-1 staining based inverted fluorescent microscopic analysis; type: functional, cell-based; settings: dose 5-20 nM
MDA-MB-231 [21] = assay: Induction of cell cycle arrest in human MDA-MB-231 cells assessed as accumulation of cells at G1 phase at 10 nM measured after 24 hrs by PI staining based flow cytometric analysis (Rvb =58%); type: functional
MCF7 = assay: Antiproliferative activity against human MCF7 cells assessed as inhibition of cell growth measured after 48 hrs by MTT assay; type: functional, cell-based; settings: MCF7, 48 h
MDA-MB-231 [22] = assay: Induction of cell cycle arrest in human MDA-MB-231 cells assessed as accumulation of cells at S phase at 20 nM measured after 24 hrs by PI staining based flow cytometric analysis (Rvb =24.1%); type: functional

## CCN(CC)c1ccc2cc(C(=O)OCCCCCOc3cc4ccc(=O)oc4cc3OCCCCCCOc3no[n+]([O-])c3S(=O)(=O)c3ccccc3)c(=O)oc2c1
[1]
  Activity: Non-Toxic
[2]
  IC50 at 48 h: > 50 µM
MDA-MB-231 [3]
  Activity: Active
A549
  IC50: 840 nM
MDA-MB-231 [4]
  Activity: 22.97%
MDA-MB-231 [5]
  Activity: 30%
MDA-MB-231 [6]
  IC50: 8 nM
MDA-MB-231 [7]
  viability at 0.01 µM: 47.3%
MDA-MB-231 [8]
  Activity: Active
[9]
  selectivity ratio: 1490
MDA-MB-231 [10]
  Activity: 39%
MDA-MB-231 [11]
  Activity: 3.93%
MDA-MB-231 [12]
  Activity: Dose-Dependent Effect
MDA-MB-231 [13]
  Activity: Active
MDA-MB-231 [14]
  viability at 0.02 µM: 25.2%
MDA-MB-231 [15]
  Activity: 63.5%
[16]
  Activity: Non-Toxic
MDA-MB-231 [17]
  Activity: 12.2%
MDA-MB-231 [18]
  Activity: Active
[19]
  IC50 at 48 h: 11.9 µM
MDA-MB-231 [20]
  Activity: Active
MDA-MB-231 [21]
  Activity: 56%
MCF7
  IC50: 2140 nM
MDA-MB-231 [22]
  Activity: 21%
